Results as given in US8338472B2, “Hexahydrocyclopentyl[F]indazole carboxamides and derivatives thereof as selective glucocorticoid receptor modulators” (Merck Sharp & Dohme Corp., priority 2008, dated 2012).
Like-named read-outs stand apart in the source and are kept apart here.

Assays:
Glucocorticoid Receptor = biological target: T1, Glucocorticoid Receptor (Homo sapiens, UniProt P04150); assay: Trans-Activation Modulation of Glucocorticoid Receptor (GRAMMER), MMTV-LUC reporter gene in A549 cells; type: cell-based; conditions: Table 1; for Emax: A549, A549 cells, Emax relative to 300 nM dexamethasone, read-out: Transactivation A549 Cells GRAMMER Emax; for EC50: inflection point, A549 cells, read-out: Transactivation A549 Cells GRAMMER IP
T1 construct: These cells express large amount of the GR and are very responsive to GC treatment; endogenous in cells; host or cells: A549 cells transiently transfected with the MMTV-LUC reporter
T1 sequence (P04150 1-777): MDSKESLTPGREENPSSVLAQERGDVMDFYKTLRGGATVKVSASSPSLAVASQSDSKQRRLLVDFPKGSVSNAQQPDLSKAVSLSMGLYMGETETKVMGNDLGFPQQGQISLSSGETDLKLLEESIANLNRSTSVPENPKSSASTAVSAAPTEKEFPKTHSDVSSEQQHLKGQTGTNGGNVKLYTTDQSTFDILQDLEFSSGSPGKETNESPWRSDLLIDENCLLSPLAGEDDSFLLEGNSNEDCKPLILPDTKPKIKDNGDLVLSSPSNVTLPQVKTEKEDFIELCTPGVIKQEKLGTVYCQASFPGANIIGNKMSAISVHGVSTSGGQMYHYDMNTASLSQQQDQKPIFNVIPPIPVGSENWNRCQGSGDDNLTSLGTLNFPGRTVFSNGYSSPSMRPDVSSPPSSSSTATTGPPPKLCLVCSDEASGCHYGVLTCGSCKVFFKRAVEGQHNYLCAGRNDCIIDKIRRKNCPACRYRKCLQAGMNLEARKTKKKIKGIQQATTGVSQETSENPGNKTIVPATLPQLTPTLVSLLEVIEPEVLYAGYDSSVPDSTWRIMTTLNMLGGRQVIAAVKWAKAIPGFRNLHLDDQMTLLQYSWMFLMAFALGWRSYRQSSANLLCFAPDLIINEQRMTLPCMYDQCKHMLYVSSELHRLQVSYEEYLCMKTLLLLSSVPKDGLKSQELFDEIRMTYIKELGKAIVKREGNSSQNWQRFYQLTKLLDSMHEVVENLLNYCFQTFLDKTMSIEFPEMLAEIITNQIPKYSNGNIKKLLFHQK
Summary of the method: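 Luciferase from a transiently transfected MMTV-LUC reporter was measured after 24 h compound exposure (≤1% DMSO) in A549 or MDA-MB-453 cells. For antagonism, the decrease of 10 nM dexamethasone-induced signal was calculated. For agonism, Emax was referenced to 300 nM dexamethasone.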

human GR = biological target: T2, human GR (Homo sapiens, UniProt P04150); assay: Transrepression Assay (GITAR), TNFα-β-lactamase reporter gene in U937 cells; type: cell-based; conditions: for GITAR Greater than by GRAMMER % SEP: GITAR Emax minus GRAMMER Emax; for EC50: inflection point, U937 cells, read-out: Transrepression U937 Cells GITAR IP
T2 construct: U937 cells contain an endogenous glucocorticoid receptor (GR); endogenous in cells; host or cells: U937 cells stably transfected with the TNF-alpha promoter/beta-lactamase reporter
T2 sequence (P04150 1-777): T1 sequence (P04150 1-777)
Summary of the method: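 Repression of PMA (5 ng/ml final)/LPS (100 ng/ml final)-induced TNF-α promoter activity, read as β-lactamase cleavage of CCF2-AM, in stably transfected U937 cells expressing native GR. Compound added 30-45 min before stimulation, overnight (~18 hr) 37° C; normalized to 100 nM dexamethasone (100%).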

[1] = biological target: T3, glucocorticoid receptor (GR) (Homo sapiens, UniProt P04150); assay: Ligand binding assay (GR BIND), 3H-dexamethasone displacement in MDA-MB-453 cell lysate; conditions: GR BIND Ki, Table 1
T3 sequence (P04150 1-777): T1 sequence (P04150 1-777)

[2] = U-937, U937 cells, activity repressed by 100 nM dexamethasone = 100%, Table 1, read-out: Transrepression U937 Cells GITAR Emax
[3] = U-937, text statement, 100 nM dexamethasone = 100%, read-out: maximal activity in the transrepression assay (GITAR)

SMILES | Emax (Glucocorticoid Receptor) [%] | EC50 (Glucocorticoid Receptor) [nM] | GITAR Greater than by GRAMMER % SEP (human GR; Table 1) [%] | Emax (human GR; [2]) [%] | Emax (human GR; [3]) [%] | EC50 (human GR; Table 1) [nM] | Ki [1] [nM]
C[C@]12Cc3cnn(-c4ccc(F)cc4)c3C=C1CC[C@@H]2C(=O)N(CCO)Cc1cc(F)c(F)c(F)c1 [Compound 28, (4αR,5S)-1-(4-fluorophenyl)-N-(2-hydroxyethyl)-4α-methyl-N-(3,4,5-trifluorobenzyl)-1,4,4α,5,6,7-hexahydrocyclopenta[f] indazole-5-carboxamide] | 10.6 | 1220 | 45.4 | 56 | > 5 | 1290 | 8.9
C[C@]12Cc3cnn(-c4ccc(F)cc4)c3C=C1CC[C@@H]2C(=O)N(CCO)CC(=O)c1coc2ccccc12 [Compound 29, (4αR,5S)-N-[2-(1-benzofuran-3-yl)-2-oxoethyl]-1-(4-fluorophenyl)-N-(2-hydroxyethyl)-4α-methyl-1,4,4α,5,6,7-hexahydrocyclopenta[f]indazole-5-carboxamide] | 2.7 | 3290 | 29.8 | 32.5 | > 5 | 1840 | 39.1
C[C@]12Cc3cnn(-c4ccc(F)cc4)c3C=C1CC[C@@H]2C(=O)N(CCO)Cc1ccccc1CS(=O)(=O)c1ccccc1 [Compound 30, (4αR,5S)-1-(4-fluorophenyl)-N-(2-hydroxyethyl)-4α-methyl-N-{2-[(phenylsulfonyl)methyl]benzyl}-1,4,4α,5,6,7-hexahydrocyclopenta[f] carboxamide] | 4.3 | 1110 | 31.2 | 35.5 | > 5 | 1080 | 12.2
C[C@]12Cc3cnn(-c4ccc(F)cc4)c3C=C1CC[C@@H]2C(=O)N(CCO)Cc1csc2ccc(Cl)cc12 [Compound 31, (4αR,5S)-N-[(5-chloro-1-benzothien-3-yl)methyl]-1-(4-fluorophenyl)-N-(2-hydroxyethyl)-4α-methyl-1,4,4α,5,6,7-hexahydrocyclopenta[f]indazole-5-carboxamide] | 2.6 | 359 | 12.9 | 15.5 | > 5 | 1230 | 7.9
C[C@]12Cc3cnn(-c4ccc(F)cc4)c3C=C1CC[C@@H]2C(=O)N(CCO)Cc1cc(F)cc(F)c1 [Compound 32, (4αR,5S)-N-(3,5-difluorobenzyl)-1-(4-fluorophenyl)-N-(2-hydroxyethyl)-4α-methyl-1,4,4α,5,6,7-hexahydrocyclopenta[f]indazole-5-carboxamide] | 17.1 | 872 | 47.1 | 64.3 | > 5 | 1030 | 11.1
C[C@]12Cc3cnn(-c4ccc(F)cc4)c3C=C1CC[C@@H]2C(=O)N(CCO)Cc1cccc(F)c1 [Compound 33, (4αR,5S)-N-(3-fluorobenzyl)-1-(4-fluorophenyl)-N-(2-hydroxyethyl)-4α-methyl-1,4,4α,5,6,7-hexahydrocyclopenta[f]indazole-5-carboxamide] | 12.2 | 901 | 44.1 | 56.3 | > 5 | 1520 | 7.7
COc1cc(CN(CCO)C(=O)[C@H]2CCC3=Cc4c(cnn4-c4ccc(F)cc4)C[C@@]32C)cc(OC)c1 [Compound 34, (4αR,5S)-N-(3,5-dimethoxybenzyl)-1-(4-fluorophenyl)-N-(2-hydroxyethyl)-4α-methyl-1,4,4α,5,6,7-hexahydrocyclopenta[f]indazole-5-carboxamide] | 22.2 | 1510 | 44.1 | 66.3 | > 5 | 644 | 12
C[C@]12Cc3cnn(-c4ccc(F)cc4)c3C=C1CC[C@@H]2C(=O)N(CCO)CCc1ccccc1 [Compound 35, (4αR,5S)-1-(4-fluorophenyl)-N-(2-hydroxyethyl)-4α-methyl-N-(2-phenylethyl)-1,4,4α,5,6,7-hexahydrocyclopenta[f]indazole-5-carboxamide] | 31.8 | 2650 | 30.8 | 62.6 | > 5 | 945 | 14.7
C[C@]12Cc3cnn(-c4ccc(F)cc4)c3C=C1CC[C@@H]2C(=O)N(CCO)Cc1ccccc1 [Compound 36, (4αR,5S)-N-benzyl-1-(4-fluorophenyl)-N-(2-hydroxyethyl)-4α-methyl-1,4,4α,5,6,7-hexahydrocyclopenta[f]indazole-5-carboxamide] | 12.5 | 872 | 54.9 | 67.4 | > 5 | 1280 | 11.7
CCCN(CCO)C(=O)[C@H]1CCC2=Cc3c(cnn3-c3ccc(F)cc3)C[C@@]21C [Compound 37, (4αR,5S)-1-(4-fluorophenyl)-N-(2-hydroxyethyl)-4α-methyl-N-propyl-1,4,4α,5,6,7-hexahydrocyclopenta[f]indazole-5-carboxamide] | 5.7 | 2550 | 31.3 | 37 | > 5 | 3420 | 168
CCCCCN(CCO)C(=O)[C@H]1CCC2=Cc3c(cnn3-c3ccc(F)cc3)C[C@@]21C [Compound 38, (4αR,5S)-1-(4-fluorophenyl)-N-(2-hydroxyethyl)-4α-methyl-N-pentyl-1,4,4α,5,6,7-hexahydrocyclopenta[f]indazole-5-carboxamide] | 37.5 | 660 | 47.3 | 84.7 | > 5 | 739 | 14.6
CCCCN(CC=O)C(=O)[C@H]1CCC2=Cc3c(cnn3-c3ccc(F)cc3)C[C@@]21C [Compound 39, (4αR,5S)-N-butyl-1-(4-fluorophenyl)-4α-methyl-N-(2-oxoethyl)-1,4,4α,5 ,6,7-hexahydrocyclopenta[f]indazole-5-carboxamide] | 27 | 535 | 67.4 | 94.3 | > 5 | 125 | 4.4
CCCCN(CC(C)O)C(=O)[C@H]1CCC2=Cc3c(cnn3-c3ccc(F)cc3)C[C@@]21C (stereo partly drawn) [Compound 40, (4αR,5S)-N-butyl-1-(4-fluorophenyl)-N-(2-hydroxypropyl)-4α-methyl-1,4,4α,5,6,7-hexahydrocyclopenta[f]indazole-5-carboxamide] | 66.4 | 108 | 20.4 | 86.8 | > 5 | 141 | 5.1
CN(CC#N)C(=O)[C@H]1CCC2=Cc3c(cnn3-c3ccc(F)cc3)C[C@@]21C [Compound 41, (4αR,5S)-N-(cyanomethyl)-1-(4-fluorophenyl)-N,4α-dimethyl-1,4,4α,5,6,7-hexahydrocyclopenta[f]indazole-5-carboxamide] | 5.6 | 4050 | 35.4 | 41 | > 5 | 2360 | 44.3
C[C@]12Cc3cnn(-c4ccc(F)cc4)c3C=C1CC[C@@H]2C(=O)N1CCC(C(F)(F)F)CC1 [Compound 42, (4αR,5S)-1-(4-fluorophenyl)-4α-methyl-5-{[4-(trifluoromethyl)piperidin-1-yl]carbonyl}-1,4,4α,5,6,7-hexahydrocyclopenta[f]indazole] | 29.5 | 419 | 35.3 | 64.8 | > 5 | 889 | 21.2
